What was measured:
MV4-11 [1] = assay: Cell cycle arrest in human MV411 cells assessed as accumulation at G2/M phase at 0.1 uM after 48 hrs by propidium iodide assay; format: functional
MV4-11 [2] = assay: Cell cycle arrest in human MV411 cells assessed as accumulation at G2/M phase at 0.01 uM after 48 hrs by propidium iodide assay; format: functional
[3] = target: Epidermal growth factor receptor (Homo sapiens, UniProt P00533); assay: Inhibition of EGFR by HTRF assay
MV4-11 [4] = assay: Cell cycle arrest in human MV411 cells assessed as accumulation at sub-G1 phase at 1 uM after 48 hrs by propidium iodide assay; format: functional
MV4-11 [5] = assay: Cell cycle arrest in human MV411 cells assessed as accumulation at S phase at 0.01 uM after 48 hrs by propidium iodide assay; format: functional
MV4-11 [6] = assay: Antiproliferative activity against […] FLT3 expressing human MV411 cells after 72 hrs by WST8 assay; format: functional, cell-based; conditions: MV4-11, 72 h
[7] = target: Hepatocyte growth factor receptor (Homo sapiens, UniProt P08581); assay: Inhibition of Met by HTRF assay
MV4-11 [8] = assay: Cell cycle arrest in human MV411 cells assessed as accumulation at sub-G1 phase at 0.1 uM after 48 hrs by propidium iodide assay; format: functional
[9] = target: T1, Receptor-type tyrosine-protein kinase FLT3 (Homo sapiens, UniProt P36888); assay: Inhibition of FLT3 by HTRF assay
T1 sequence (P36888 whole entry): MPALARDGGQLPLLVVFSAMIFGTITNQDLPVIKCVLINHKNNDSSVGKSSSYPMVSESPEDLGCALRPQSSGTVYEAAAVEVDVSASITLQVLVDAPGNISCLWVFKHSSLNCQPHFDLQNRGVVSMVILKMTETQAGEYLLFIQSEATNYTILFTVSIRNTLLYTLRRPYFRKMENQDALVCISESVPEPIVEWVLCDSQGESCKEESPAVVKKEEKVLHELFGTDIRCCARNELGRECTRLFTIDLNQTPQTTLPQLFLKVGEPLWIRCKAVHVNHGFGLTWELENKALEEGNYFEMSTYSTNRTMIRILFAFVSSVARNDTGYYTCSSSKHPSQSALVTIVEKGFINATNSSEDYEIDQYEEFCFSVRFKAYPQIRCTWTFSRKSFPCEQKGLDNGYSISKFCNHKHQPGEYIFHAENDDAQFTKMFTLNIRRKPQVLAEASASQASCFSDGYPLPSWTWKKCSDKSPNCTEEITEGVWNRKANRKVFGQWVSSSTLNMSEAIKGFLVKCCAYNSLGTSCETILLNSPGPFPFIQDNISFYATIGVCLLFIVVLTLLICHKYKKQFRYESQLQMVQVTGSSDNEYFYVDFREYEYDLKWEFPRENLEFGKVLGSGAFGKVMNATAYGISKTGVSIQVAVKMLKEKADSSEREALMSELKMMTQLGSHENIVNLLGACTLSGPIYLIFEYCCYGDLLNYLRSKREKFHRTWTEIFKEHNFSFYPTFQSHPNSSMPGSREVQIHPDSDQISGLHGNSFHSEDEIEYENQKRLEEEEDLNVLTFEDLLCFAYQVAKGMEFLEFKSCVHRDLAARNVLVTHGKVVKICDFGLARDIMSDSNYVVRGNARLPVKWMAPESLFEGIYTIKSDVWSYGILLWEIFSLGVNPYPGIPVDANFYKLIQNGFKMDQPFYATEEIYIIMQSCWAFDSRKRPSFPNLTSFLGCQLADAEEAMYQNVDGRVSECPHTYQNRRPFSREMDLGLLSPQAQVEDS

MV4-11 [10] = assay: Cell cycle arrest in human MV411 cells assessed as accumulation at G0/G1 phase at 0.1 uM after 48 hrs by propidium iodide assay; format: functional
MV4-11 [11] = assay: Cell cycle arrest in human MV411 cells assessed as accumulation at S phase at 0.1 uM after 48 hrs by propidium iodide assay; format: functional
[12] = target: Macrophage-stimulating protein receptor (Homo sapiens, UniProt Q04912); assay: Inhibition of Ron by HTRF assay
[13] = Antiproliferative activity against human RS4:11 cells having FLT3-ITD mutation after 72 hrs by WST8 assay; format: functional, cell-based; conditions: RS4-11, 72 h
MV4-11 [14] = assay: Cell cycle arrest in human MV411 cells assessed as accumulation at S phase at 1 uM after 48 hrs by propidium iodide assay; format: functional
Insulin receptor = Insulin receptor (Homo sapiens, UniProt P06213); assay: Inhibition of insulin receptor by HTRF assay
MV4-11 [15] = assay: Cell cycle arrest in human MV411 cells assessed as accumulation at G2/M phase at 1 uM after 48 hrs by propidium iodide assay; format: functional
MV4-11 [16] = assay: Cell cycle arrest in human MV411 cells assessed as accumulation at G0/G1 phase at 1 uM after 48 hrs by propidium iodide assay; format: functional
[17] = target: Vascular endothelial growth factor receptor 2 (Homo sapiens, UniProt P35968); assay: Inhibition of VEGFR2 by HTRF assay
Aurora kinase A = target: T2, Aurora kinase A (Homo sapiens, UniProt O14965); assay: Inhibition of Aurora A by HTRF assay
T2 sequence (O14965 whole entry): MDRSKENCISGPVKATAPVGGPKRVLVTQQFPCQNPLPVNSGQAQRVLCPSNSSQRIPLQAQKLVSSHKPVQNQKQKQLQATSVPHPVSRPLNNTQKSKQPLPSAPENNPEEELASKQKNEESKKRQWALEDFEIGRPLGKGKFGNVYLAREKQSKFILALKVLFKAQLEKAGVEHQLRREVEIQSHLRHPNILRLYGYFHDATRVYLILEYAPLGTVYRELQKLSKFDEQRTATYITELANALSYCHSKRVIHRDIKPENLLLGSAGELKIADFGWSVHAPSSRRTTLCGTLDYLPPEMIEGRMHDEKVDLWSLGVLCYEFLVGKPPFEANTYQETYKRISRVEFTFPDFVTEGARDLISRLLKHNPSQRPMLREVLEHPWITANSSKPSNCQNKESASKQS

MV4-11 [18] = assay: Cell cycle arrest in human MV411 cells assessed as accumulation at sub-G1 phase at 0.01 uM after 48 hrs by propidium iodide assay; format: functional
MV4-11 [19] = assay: Cell cycle arrest in human MV411 cells assessed as accumulation at G0/G1 phase at 0.01 uM after 48 hrs by propidium iodide assay; format: functional

Chain of Epidermal growth factor receptor (P00533 whole entry): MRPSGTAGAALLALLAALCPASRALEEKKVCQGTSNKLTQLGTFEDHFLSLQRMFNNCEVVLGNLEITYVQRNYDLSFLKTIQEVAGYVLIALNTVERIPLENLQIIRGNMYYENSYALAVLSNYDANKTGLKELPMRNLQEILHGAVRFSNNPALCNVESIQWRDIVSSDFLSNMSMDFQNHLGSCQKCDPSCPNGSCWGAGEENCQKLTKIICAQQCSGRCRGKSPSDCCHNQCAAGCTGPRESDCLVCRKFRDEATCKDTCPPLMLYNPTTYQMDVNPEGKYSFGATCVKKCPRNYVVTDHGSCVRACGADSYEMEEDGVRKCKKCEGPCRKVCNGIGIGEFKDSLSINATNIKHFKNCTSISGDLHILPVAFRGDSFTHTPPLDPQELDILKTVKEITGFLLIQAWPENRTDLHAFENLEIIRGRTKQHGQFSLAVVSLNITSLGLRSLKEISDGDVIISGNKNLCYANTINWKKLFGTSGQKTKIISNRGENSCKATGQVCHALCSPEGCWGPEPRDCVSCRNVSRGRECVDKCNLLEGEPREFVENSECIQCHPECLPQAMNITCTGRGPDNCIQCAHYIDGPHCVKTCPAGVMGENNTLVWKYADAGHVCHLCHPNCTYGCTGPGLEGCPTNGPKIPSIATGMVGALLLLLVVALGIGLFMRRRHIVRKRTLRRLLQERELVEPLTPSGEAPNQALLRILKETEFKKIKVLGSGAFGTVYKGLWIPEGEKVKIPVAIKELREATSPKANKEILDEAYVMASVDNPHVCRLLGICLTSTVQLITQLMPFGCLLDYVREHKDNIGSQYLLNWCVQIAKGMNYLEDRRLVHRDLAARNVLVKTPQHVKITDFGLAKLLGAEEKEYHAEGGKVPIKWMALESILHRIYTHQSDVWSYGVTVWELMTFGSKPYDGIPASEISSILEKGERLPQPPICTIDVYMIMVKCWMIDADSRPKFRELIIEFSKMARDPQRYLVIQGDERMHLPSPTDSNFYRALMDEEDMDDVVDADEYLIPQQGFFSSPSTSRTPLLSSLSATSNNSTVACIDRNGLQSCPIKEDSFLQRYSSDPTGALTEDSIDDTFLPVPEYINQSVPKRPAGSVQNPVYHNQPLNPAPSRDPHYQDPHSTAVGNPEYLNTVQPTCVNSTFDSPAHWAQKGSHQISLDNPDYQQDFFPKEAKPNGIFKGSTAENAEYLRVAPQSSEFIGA
Chain of Hepatocyte growth factor receptor (P08581 whole entry): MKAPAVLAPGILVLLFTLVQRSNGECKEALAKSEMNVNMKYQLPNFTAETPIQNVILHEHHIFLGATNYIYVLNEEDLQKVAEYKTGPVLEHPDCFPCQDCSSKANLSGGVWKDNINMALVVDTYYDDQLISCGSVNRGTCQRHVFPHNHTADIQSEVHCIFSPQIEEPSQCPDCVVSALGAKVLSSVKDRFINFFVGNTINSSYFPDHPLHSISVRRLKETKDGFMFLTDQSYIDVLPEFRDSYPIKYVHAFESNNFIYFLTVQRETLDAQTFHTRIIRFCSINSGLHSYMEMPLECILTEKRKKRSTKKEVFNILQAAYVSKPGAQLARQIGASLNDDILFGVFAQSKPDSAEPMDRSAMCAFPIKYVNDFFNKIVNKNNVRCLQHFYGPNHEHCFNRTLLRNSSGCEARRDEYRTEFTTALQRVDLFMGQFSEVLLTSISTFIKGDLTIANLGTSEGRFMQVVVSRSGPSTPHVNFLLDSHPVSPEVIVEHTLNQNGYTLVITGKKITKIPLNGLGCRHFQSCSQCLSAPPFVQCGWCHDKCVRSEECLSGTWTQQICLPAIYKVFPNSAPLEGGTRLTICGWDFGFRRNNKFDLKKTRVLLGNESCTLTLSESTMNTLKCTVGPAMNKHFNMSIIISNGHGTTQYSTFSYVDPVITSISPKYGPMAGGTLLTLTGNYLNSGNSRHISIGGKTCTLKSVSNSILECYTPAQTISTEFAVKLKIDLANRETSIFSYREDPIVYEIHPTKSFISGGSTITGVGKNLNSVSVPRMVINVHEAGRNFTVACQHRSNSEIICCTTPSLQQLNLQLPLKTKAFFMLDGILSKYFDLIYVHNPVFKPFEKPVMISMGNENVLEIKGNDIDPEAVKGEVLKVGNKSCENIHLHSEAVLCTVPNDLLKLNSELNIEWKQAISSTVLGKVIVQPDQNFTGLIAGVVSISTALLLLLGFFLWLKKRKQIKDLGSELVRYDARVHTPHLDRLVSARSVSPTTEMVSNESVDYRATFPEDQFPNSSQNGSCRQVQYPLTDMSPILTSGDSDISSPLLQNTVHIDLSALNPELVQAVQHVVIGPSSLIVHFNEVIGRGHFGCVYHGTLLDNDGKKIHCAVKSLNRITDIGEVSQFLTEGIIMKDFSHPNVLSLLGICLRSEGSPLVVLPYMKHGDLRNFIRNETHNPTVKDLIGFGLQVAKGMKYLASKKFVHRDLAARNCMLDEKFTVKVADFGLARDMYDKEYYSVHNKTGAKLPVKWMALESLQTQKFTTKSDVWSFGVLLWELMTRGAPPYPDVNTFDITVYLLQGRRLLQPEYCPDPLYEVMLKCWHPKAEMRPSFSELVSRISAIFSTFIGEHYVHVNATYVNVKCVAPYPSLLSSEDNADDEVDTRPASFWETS
Chain of Macrophage-stimulating protein receptor (Q04912 25-304 limits assumed): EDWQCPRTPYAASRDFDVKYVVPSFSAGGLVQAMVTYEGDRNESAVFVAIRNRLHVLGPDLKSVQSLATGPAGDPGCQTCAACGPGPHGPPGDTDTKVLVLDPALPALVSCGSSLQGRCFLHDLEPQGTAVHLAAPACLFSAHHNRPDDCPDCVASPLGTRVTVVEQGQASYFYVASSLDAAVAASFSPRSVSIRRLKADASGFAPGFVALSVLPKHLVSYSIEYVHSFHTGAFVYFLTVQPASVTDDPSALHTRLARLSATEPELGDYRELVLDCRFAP
Chain of Macrophage-stimulating protein receptor (Q04912 310-1400 limits assumed): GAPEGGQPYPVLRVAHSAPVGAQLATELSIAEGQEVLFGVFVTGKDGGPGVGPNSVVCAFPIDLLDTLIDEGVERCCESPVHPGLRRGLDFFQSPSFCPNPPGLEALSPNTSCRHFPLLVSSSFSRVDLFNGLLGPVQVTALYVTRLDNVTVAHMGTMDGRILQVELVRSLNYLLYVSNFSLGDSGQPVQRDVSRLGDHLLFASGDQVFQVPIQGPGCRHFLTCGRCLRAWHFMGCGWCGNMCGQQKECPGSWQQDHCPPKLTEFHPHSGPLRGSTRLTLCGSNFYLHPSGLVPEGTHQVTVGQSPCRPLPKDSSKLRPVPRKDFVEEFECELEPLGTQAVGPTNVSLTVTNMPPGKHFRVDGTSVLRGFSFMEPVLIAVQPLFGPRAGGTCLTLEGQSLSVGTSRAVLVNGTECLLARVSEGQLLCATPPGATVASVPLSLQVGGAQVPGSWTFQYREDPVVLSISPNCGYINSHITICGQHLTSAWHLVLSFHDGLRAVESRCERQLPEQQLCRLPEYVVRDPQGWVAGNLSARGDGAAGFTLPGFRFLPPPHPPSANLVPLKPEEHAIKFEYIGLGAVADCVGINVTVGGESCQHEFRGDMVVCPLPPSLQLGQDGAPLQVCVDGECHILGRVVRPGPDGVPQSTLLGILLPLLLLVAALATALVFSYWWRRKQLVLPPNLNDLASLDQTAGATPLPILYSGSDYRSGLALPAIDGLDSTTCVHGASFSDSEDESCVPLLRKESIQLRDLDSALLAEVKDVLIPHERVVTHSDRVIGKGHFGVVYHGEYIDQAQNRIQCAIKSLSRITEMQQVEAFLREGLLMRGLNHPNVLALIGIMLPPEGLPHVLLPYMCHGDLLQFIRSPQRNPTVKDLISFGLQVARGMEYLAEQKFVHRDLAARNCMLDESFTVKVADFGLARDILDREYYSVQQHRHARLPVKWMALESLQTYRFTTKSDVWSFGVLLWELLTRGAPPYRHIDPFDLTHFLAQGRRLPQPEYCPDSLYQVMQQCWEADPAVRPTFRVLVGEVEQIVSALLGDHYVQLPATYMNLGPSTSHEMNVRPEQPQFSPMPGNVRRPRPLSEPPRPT

Row | SMILES | IC50 (MV4-11 [6]) [nM] | IC50 [9] [nM] | IC50 [13] [nM] | further results
1 | O=C1Nc2ccc(F)cc2/C1=C1/Nc2ccccc2/C1=N\O | 72 | 15 | 2210 | Activity (MV4-11 [1]): 2.91%; Activity (MV4-11 [2]): 11.53%; IC50 [3]: > 10000 nM; Activity (MV4-11 [4]): 37.73%; Activity (MV4-11 [5]): 16.55%; IC50 [7]: > 10000 nM; Activity (MV4-11 [8]): 32.76%; Activity (MV4-11 [10]): 57.44%; Activity (MV4-11 [11]): 6.42%; IC50 [12]: > 10000 nM; Activity (MV4-11 [14]): 2.85%; IC50 (Insulin receptor): > 10000 nM; Activity (MV4-11 [15]): 1.05%; Activity (MV4-11 [16]): 58.06%; IC50 [17]: 1530 nM; IC50 (Aurora kinase A): 1270 nM; Activity (MV4-11 [18]): 9.24%; Activity (MV4-11 [19]): 61.62%
2 | O=C1Nc2ccc(OC(F)(F)F)cc2/C1=C1/Nc2ccccc2/C1=N\O | > 3550 | > 10000 | 3360 | 
3 | CC(=O)N1/C(=C2\C(=O)Nc3ccccc32)C(=O)c2ccccc21 | > 10000 | > 10000 | > 10000 | 
4 | O=C1Nc2ccc([N+](=O)[O-])cc2/C1=C1/Nc2ccc(Br)cc2/C1=N/O | > 270 | > 10000 | 160 | 
5 | Cc1cc(C)c2c(c1)/C(=C1/Nc3ccccc3/C1=N\O)C(=O)N2 | 2400 | 952 | > 10000 | 
6 | Cc1cc(Cl)cc2c1NC(=O)/C2=C1\Nc2ccccc2\C1=N/O | > 10000 | > 10000 | > 10000 | 
7 | O=C1Nc2ccc(S(=O)(=O)O)cc2/C1=C1/Nc2ccccc2/C1=N\O | > 10000 | 9 | > 10000 | 
8 | Cc1ccc2c(c1)/C(=C1/Nc3ccccc3/C1=N\O)C(=O)N2 | 260 | 28 | 8560 | 
9 | Cc1ccc2[nH]c(O)c(C3=Nc4ccccc4C3=O)c2c1 | 1540 | 209 | > 10000 | 
10 | O=C1C(c2c(O)[nH]c3ccc(I)cc23)=Nc2ccccc21 | 4790 | 4720 | > 10000 | 
11 | O=C1C(c2c(O)[nH]c3ccc([N+](=O)[O-])cc23)=Nc2ccccc21 | > 10000 | > 10000 | > 10000 | 
12 | O=Nc1c(-c2c(O)[nH]c3ccc(I)cc23)[nH]c2ccccc12 | 360 | 418 | 1450 | 
13 | O=C1C(c2c(O)[nH]c3ccc(Cl)cc23)=Nc2ccccc21 | 7000 | 212 | > 10000 | 
14 | O=C1C(c2c(O)[nH]c3ccc(F)cc23)=Nc2ccccc21 | > 10000 | 10100 | > 10000 | 
15 | O=C1C(c2c(O)[nH]c3ccc(S(=O)(=O)O)cc23)=Nc2ccccc21 | > 10000 | 280 | > 10000 | 
16 | O=Nc1c(-c2c(O)[nH]c3ccc([N+](=O)[O-])cc23)[nH]c2ccccc12 | 450 | 62 | 560 | 
17 | O=C1Nc2ccc(Cl)cc2/C1=C1/Nc2ccccc2/C1=N\O | 220 | 82 | 1580 | 
18 | Nc1ccc2c(c1)/C(=C1/Nc3ccccc3C1=O)C(=O)N2 | 4300 | 359 | 4670 | 
19 | Nc1ccc2c(c1)/C(=C1/Nc3ccccc3/C1=N\O)C(=O)N2 | 1650 | 128 | 3340 | 
20 | Nc1ccn([C@@H]2O[C@H](CO)[C@@H](O)[C@@H]2O)c(=O)n1 [CYTARABINE] | 3360 |  | 260 | 
21 | O=Nc1c(-c2c(O)[nH]c3ccccc23)[nH]c2ccccc12 [INDIRUBIN-3-MONOXIME] | 150 | 33 | 3560 | 
22 | O=C1Nc2ccccc2/C1=C1/Nc2ccccc2C1=O [INDIRUBIN] | > 10000 | > 10000 | > 10000 | 
23 | C[C@]12O[C@H](C[C@]1(O)CO)n1c3ccccc3c3c4c(c5c6ccccc6n2c5c31)CNC4=O [LESTAURTINIB] | 9 |  | 120 | 

— ChEMBL document CHEMBL1155384 (Bioorg Med Chem Lett, 2010)
